Measured values as given in ChEMBL document CHEMBL1938230, “6-Position optimization of tricyclic 4-quinolone-based inhibitors of glycogen synthase kinase-3β: discovery of nitrile derivatives with picomolar potency” (Bioorg Med Chem Lett, 2012).

Assays:
[1] = target: T1, Serine/threonine-protein kinase ULK3 (Homo sapiens) (UniProt Q6PHR2); test: Inhibition of human ULK3 in HL-60 cells lysate assessed as reduction of labeling of acyl-phosphate ATP probe at 100 nM; format: cell-free
T1 sequence (whole entry): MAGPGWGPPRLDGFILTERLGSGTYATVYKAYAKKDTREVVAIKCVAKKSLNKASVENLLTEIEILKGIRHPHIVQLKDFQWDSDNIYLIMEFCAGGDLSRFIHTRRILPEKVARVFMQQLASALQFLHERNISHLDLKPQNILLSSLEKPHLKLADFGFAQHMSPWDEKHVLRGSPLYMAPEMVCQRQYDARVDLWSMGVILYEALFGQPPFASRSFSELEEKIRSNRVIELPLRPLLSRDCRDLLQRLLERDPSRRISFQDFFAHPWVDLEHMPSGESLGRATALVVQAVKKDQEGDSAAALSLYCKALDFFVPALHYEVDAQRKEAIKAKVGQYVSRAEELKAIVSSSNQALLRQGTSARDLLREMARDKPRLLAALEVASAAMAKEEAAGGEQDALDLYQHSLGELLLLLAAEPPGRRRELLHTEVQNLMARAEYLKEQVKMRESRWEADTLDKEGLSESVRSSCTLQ

[2] = target: Wee1-like protein kinase (Homo sapiens) (UniProt P30291); test: Inhibition of human Wee1 in HL-60 cells lysate assessed as reduction of labeling of acyl-phosphate ATP probe at 100 nM; format: cell-free
[3] = target: T2, Mitogen-activated protein kinase kinase kinase 5 (Homo sapiens) (UniProt Q99683); test: Inhibition of human MAP3K5 in HL-60 cells lysate assessed as reduction of labeling of acyl-phosphate ATP probe at 100 nM; format: cell-free
T2 sequence (whole entry): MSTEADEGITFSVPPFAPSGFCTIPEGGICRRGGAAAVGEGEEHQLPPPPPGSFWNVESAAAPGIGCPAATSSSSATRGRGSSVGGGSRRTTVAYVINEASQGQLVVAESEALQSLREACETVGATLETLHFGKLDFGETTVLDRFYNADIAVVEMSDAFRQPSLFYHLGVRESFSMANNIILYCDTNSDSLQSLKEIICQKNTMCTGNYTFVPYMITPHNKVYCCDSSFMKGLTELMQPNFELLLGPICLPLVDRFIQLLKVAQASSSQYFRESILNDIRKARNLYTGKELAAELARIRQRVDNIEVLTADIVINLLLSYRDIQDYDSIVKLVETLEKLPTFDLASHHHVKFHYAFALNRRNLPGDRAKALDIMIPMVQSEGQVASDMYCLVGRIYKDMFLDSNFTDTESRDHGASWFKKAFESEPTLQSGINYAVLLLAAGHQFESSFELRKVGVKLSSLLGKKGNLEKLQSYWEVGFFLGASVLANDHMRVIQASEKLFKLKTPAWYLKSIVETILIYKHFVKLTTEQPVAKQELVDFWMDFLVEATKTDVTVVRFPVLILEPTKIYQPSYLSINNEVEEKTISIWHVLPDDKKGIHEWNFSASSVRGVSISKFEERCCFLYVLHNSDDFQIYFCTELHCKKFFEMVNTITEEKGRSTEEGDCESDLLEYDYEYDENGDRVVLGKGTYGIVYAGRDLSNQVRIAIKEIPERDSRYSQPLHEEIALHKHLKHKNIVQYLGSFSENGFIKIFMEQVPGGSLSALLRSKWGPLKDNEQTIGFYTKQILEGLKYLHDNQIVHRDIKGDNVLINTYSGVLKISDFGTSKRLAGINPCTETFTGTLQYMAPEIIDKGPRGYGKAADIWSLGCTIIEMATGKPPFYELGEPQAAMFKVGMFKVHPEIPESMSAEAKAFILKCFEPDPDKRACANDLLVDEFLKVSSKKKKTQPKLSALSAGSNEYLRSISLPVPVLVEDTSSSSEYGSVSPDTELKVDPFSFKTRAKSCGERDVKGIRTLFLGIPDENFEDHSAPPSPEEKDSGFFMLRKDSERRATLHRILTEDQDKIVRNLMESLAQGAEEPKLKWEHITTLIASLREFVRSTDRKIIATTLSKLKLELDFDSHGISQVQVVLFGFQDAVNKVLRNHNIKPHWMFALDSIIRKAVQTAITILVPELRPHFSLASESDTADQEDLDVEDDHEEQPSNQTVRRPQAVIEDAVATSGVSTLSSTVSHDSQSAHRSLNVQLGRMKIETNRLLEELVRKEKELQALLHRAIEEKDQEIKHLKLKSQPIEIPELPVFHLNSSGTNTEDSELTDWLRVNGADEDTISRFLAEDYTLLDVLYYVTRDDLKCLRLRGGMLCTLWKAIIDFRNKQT

[4] = tested on: HL-60; test: Inhibition of human MST3/MST4/YSK1 in HL-60 cells lysate assessed as reduction of labeling of acyl-phosphate ATP probe at 100 nM
[5] = target: Serine/threonine-protein kinase 26 (Homo sapiens) (UniProt Q9P289); test: Inhibition of human MST4 in HL-60 cells lysate assessed as reduction of labeling of acyl-phosphate ATP probe at 100 nM; format: cell-free
[6] = tested on: HL-60; test: Inhibition of human TAO1/TAO3 in HL-60 cells lysate assessed as reduction of labeling of acyl-phosphate ATP probe at 100 nM
[7] = target: Tyrosine-protein kinase Lyn (Homo sapiens) (UniProt P07948); test: Inhibition of human LYN in HL-60 cells lysate assessed as reduction of labeling of acyl-phosphate ATP probe at 100 nM; format: cell-free
[8] = target: T3, Serine/threonine-protein kinase A-Raf (Homo sapiens) (UniProt P10398); test: Inhibition of human ARAF in HL-60 cells lysate assessed as reduction of labeling of acyl-phosphate ATP probe at 100 nM; format: cell-free
T3 sequence (whole entry): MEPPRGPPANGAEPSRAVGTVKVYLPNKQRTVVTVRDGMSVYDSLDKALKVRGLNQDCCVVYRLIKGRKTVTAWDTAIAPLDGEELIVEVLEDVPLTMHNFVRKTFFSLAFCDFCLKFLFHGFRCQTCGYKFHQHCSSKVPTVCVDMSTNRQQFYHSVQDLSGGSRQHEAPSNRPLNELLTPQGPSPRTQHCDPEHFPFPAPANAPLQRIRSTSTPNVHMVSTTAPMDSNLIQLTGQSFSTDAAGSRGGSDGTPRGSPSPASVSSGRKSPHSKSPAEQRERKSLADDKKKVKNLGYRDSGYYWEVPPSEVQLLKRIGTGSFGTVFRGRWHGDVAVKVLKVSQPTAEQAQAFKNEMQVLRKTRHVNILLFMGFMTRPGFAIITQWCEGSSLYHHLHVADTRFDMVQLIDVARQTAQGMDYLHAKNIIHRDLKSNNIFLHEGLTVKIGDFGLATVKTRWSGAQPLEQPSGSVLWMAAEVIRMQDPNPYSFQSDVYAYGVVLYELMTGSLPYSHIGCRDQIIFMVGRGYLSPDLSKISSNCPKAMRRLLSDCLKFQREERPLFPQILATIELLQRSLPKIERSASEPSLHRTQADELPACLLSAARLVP

Sequence of Serine/threonine-protein kinase 26 (Homo sapiens) (Q9P289 2-416 limits assumed): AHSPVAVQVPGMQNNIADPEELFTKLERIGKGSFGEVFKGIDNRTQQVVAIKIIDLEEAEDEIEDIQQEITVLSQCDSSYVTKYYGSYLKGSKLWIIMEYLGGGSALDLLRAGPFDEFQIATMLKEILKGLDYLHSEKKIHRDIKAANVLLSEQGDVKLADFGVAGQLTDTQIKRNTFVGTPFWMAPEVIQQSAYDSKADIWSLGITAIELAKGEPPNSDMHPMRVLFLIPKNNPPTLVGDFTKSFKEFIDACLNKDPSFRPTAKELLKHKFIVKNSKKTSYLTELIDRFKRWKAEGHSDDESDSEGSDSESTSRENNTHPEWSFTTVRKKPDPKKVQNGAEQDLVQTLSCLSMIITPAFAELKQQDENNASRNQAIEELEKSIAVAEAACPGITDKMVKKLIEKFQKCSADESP
Sequence of Tyrosine-protein kinase Lyn (Homo sapiens) (P07948 2-512 limits assumed): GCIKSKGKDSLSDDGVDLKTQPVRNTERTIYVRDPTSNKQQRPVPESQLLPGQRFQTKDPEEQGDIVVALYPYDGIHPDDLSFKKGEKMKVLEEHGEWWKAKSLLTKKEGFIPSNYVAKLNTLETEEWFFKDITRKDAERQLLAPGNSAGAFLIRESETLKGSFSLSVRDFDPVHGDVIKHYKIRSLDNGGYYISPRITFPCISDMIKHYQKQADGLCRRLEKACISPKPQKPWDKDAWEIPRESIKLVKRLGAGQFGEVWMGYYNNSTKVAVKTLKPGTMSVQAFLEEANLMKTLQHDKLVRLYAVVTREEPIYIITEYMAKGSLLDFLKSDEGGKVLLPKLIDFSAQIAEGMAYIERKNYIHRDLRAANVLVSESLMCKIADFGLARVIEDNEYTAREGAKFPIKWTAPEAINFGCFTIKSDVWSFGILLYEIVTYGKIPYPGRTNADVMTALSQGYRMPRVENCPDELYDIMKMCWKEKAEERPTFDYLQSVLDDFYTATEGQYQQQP
Sequence of Wee1-like protein kinase (Homo sapiens) (P30291 whole entry, looked up): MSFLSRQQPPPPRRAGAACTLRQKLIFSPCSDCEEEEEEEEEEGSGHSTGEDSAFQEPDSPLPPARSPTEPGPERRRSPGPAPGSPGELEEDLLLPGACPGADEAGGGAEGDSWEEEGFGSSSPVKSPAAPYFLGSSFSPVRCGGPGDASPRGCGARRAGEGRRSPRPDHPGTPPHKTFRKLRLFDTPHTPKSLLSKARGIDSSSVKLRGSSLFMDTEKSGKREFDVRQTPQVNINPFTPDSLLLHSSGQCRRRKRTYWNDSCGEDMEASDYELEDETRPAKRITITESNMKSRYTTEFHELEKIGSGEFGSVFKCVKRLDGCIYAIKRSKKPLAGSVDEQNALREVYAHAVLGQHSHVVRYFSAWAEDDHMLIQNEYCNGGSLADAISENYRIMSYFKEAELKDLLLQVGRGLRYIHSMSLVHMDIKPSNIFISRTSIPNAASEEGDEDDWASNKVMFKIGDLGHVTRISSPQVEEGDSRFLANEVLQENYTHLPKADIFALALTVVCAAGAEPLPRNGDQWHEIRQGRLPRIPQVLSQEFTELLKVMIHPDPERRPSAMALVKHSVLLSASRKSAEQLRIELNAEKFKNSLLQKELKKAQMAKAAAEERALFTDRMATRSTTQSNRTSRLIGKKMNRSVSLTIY

C[C@H]1COc2c(NCCCc3ccccn3)c(F)c(N)c3c(=O)c(C#N)cn1c23
< 35%: inhibition [1] | inhibition [2] | inhibition [3] | inhibition at 0.1 µM [4] | inhibition [5] | inhibition at 0.1 µM [6] | inhibition [7] | inhibition [8]

C[C@H]1COc2c(NCCCc3ccccn3)c(F)c(N)c3c(=O)c(C(=O)O)cn1c23
< 35%: inhibition [1] | inhibition [2] | inhibition [3] | inhibition at 0.1 µM [4] | inhibition [5] | inhibition at 0.1 µM [6] | inhibition [7] | inhibition [8]

C[C@H]1COc2c(NCCCn3cccn3)c(F)c(N)c3c(=O)c(C(=O)O)cn1c23
< 35%: inhibition [1] | inhibition [2] | inhibition [3] | inhibition at 0.1 µM [4] | inhibition [5] | inhibition at 0.1 µM [6] | inhibition [7] | inhibition [8]

C[C@H]1COc2c(NCCCn3cccn3)c(F)c(N)c3c(=O)c(C#N)cn1c23
< 35%: inhibition [1] | inhibition [2] | inhibition [3] | inhibition at 0.1 µM [4] | inhibition [5] | inhibition at 0.1 µM [6] | inhibition [7] | inhibition [8]
